Assay results from ChEMBL document CHEMBL5030532, “Synthesis and Evaluation of Galloyl Conjugates of Flavanones as BMP-2 Upregulators with Promising Bone Anabolic and Fracture Healing Properties” (J Med Chem, 2021).
Active and inactive are the calls of the source. No cut-off for these calls is given here.

Assays:
Calvarial osteoblast [1] = assay: Induction of osteoblast differentiation in rat Calvaria osteoblast cells measured assessed as increase in alkaline phosphatase activity at 1 pM incubated for 48 hrs using PNPP as substrate; type: functional, cell-based
Calvarial osteoblast [2] = assay: Induction of osteoblast differentiation in rat Calvaria osteoblast cells measured assessed as increase in alkaline phosphatase activity at 10 pM incubated for 48 hrs using PNPP as substrate; type: functional, cell-based
Calvarial osteoblast [3] = assay: Induction of osteoblast differentiation in rat Calvaria osteoblast cells measured assessed as increase in alkaline phosphatase activity at 0.000001 to 1 uM incubated for 48 hrs using PNPP as substrate; type: functional, cell-based; details: dose lower 1e-06 µM, dose upper 1.0 µM
[4] = Induction of osteogeneis in rat calvarial osteoblast cells assessed as fold upregulation of ALP gene expression at 1 pM measured after 48 hrs by qPCR analysis relative to control; type: functional
[5] = Induction of osteogeneis in rat calvarial osteoblast cells assessed as fold upregulation of RUNX2 gene expression at 1 pM measured after 48 hrs by qPCR analysis relative to control; type: functional
Calvarial osteoblast [6] = assay: Induction of mineralization in rat Calvarial osteoblast cells measured at 10 nM measured for 14 days by Cetylpyridinium chloride method; type: functional, tissue-based; details: time 14.0 day
Calvarial osteoblast [7] = assay: Induction of osteoblast differentiation in rat Calvaria osteoblast cells measured assessed as maximal increase in alkaline phosphatase activity incubated for 48 hrs using PNPP as substrate; type: functional
Calvarial osteoblast [8] = assay: Induction of rat Calvarial osteoblast cell proliferation at 0.000001 to 1 uM measured after 48 hrs by MTT assay; type: functional, tissue-based; details: dose lower 1e-06 µM, dose upper 1.0 µM
[9] = Induction of osteogeneis in rat calvarial osteoblast cells assessed as fold upregulation of BMP-2 gene expression at 1 pM measured after 48 hrs by qPCR analysis relative to control; type: functional
Calvarial osteoblast [10] = assay: Cytotoxicity against rat Calvarial osteoblast cells assessed as viable cells measured at 0.000001 to 1 uM measure after 48 hrs by cell viability assay; type: cell-based; details: dose lower 1e-06 µM, dose upper 1 µM
Calvarial osteoblast [11] = assay: (§1) Induction of osteogeneis in rat calvarial osteoblast cells assessed as fold upregulation of Col1 gene expression at 1 pM measured after 48 hrs by qPCR analysis relative to control; type: functional
[12] = AUC in Sprague-Dawley rat at 5 mg/kg, po by LC-MS/MS analysis; type: ADME, organism-based; design: dose 5 mg/kg; details: in vivo
[13] = Volume of distribution in Sprague-Dawley rat at 10 mg/kg, po by LC-MS/MS analysis; type: ADME, organism-based; details: in vivo
[14] = Stability of the compound in simulated gastric acid at pH 1.2 measured after 1 hr by LC-MS/MS analysis; type: ADME; details: read-out: Stability
[15] = Clearance in Sprague-Dawley rat at 5 mg/kg, po by LC-MS/MS analysis; type: ADME, organism-based; details: in vivo
[16] = AUC in Sprague-Dawley rat at 10 mg/kg, po by LC-MS/MS analysis; type: ADME, organism-based; design: dose 10 mg/kg; details: in vivo
Rattus norvegicus [17] = assay: Induction of bone regeneration in adult rat femur osteotomy model assessed as increase in calcein labeled callus measured at 5 mg/kg, po for 14 days by calcein labeling study relative to control; type: functional; details: time 14 day
[18] = MRT in Sprague-Dawley rat at 5 mg/kg, po by LC-MS/MS analysis; type: ADME, organism-based; details: in vivo
[19] = MRT in Sprague-Dawley rat at 10 mg/kg, po by LC-MS/MS analysis; type: ADME, organism-based; details: in vivo
Rattus norvegicus [20] = assay: Induction of bone regeneration in adult rat femur osteotomy model assessed as restoration of bone morphology measured at 5 mg/kg, po for 14 days by toluidine blue staining based analysis; type: functional, organism-based; details: time 14.0 day
[21] = Stability in rat plasma after 1 hr incubation by LC-MS/MS analysis; type: ADME, cell-free; details: read-out: Stability
Rattus norvegicus [22] = assay: Induction of new bone formation in rat pups assessed as mineralized bone formation in calvaria by measuring increase in calvarial thickness at 5 mg/kg, sc measured after 5 days by Hematoxylin and eosin staining based quantitative histology; type: functional, organism-based; details: time 5.0 day
[23] = Cmax in Sprague-Dawley rat at 10 mg/kg, po by LC-MS/MS analysis; type: ADME, organism-based; design: route oral, dose 10 mg/kg; details: in vivo
[24] = Induction of bone regeneration in adult rat femur osteotomy model assessed as fold increase in Col1 gene expression in fracture calluses measured at 5 mg/kg, po for 14 days by […] relative to control; type: functional; details: time 14 day
[25] = Stability in rat liver microsomes after 1 hr incubation by LC-MS/MS analysis; type: ADME, Microsome
Rattus norvegicus [26] = assay: In vivo induction of osteogenic activity in neonatal rat pups assessed as fold increase in BMP-2 gene expression in calvarial tissue at 5 mg/kg, sc administered for 6 days; type: functional, organism-based; details: Calvaria, time 6.0 day
[27] = Clearance in Sprague-Dawley rat at 10 mg/kg, po by LC-MS/MS analysis; type: ADME, organism-based; details: in vivo
[28] = Volume of distribution in Sprague-Dawley rat at 5 mg/kg, po by LC-MS/MS analysis; type: ADME, organism-based; details: in vivo
[29] = Half life in Sprague-Dawley rat at 10 mg/kg, po by LC-MS/MS analysis; type: ADME, organism-based; details: in vivo
[30] = In vivo induction of osteogenic activity in neonatal rat pups assessed as fold increase in RUNX2 gene expression in calvarial tissue at 5 mg/kg, sc administered for 6 days; type: functional, Calvaria; details: time 6 day
Rattus norvegicus [31] = assay: Induction of bone regeneration in adult rat femur osteotomy model assessed as increase in trabecular number measured at 5 mg/kg, po for 14 days by microCT analysis relative to control; type: functional, organism-based; details: time 14.0 day
[32] = Stability of the compound in simulated intestinal acid at pH 6.5 measured after 1 hr by LC-MS/MS analysis; type: ADME; details: read-out: Stability
[33] = Cmax in Sprague-Dawley rat at 5 mg/kg, po by LC-MS/MS analysis; type: ADME, organism-based; design: route oral, dose 5 mg/kg; details: in vivo
Rattus norvegicus [34] = assay: Induction of new bone formation in rat pups assessed as mineralized bone formation in calvaria by measuring bone formation rate at 5 mg/kg, sc measured after 5 days by fluorescent microscopy by relative to control; type: functional, organism-based; details: time 5.0 day
[35] = In vivo induction of osteogenic activity in neonatal rat pups assessed as fold increase in OCN gene expression in calvarial tissue at 10 mg/kg, sc administered for 6 days; type: functional, Calvaria; details: time 6 day
Rattus norvegicus [36] = assay: Induction of bone regeneration in adult rat femur osteotomy model assessed as increase in trabecular thickness measured at 5 mg/kg, po for 14 days by microCT analysis relative to control; type: functional, organism-based; details: time 14.0 day
[37] = Induction of bone regeneration in adult rat femur osteotomy model assessed as fold increase in OCN expression in fracture calluses measured at 5 mg/kg, po for 14 days by […] relative to control; type: functional; details: time 14 day
Calvarial osteoblast [38] = assay: Induction of osteogeneis in rat calvarial osteoblast cells assessed as upregulation of RUNX2 protein expression at 1 pM measured after 48 hrs by immunoblotting analysis; type: functional, tissue-based
Rattus norvegicus [39] = assay: Induction of new bone formation in rat pups assessed as mineral apposition rate in calvaria at 5 mg/kg, sc measured after 5 days by fluorescent microscopy by relative to control; type: functional, organism-based; details: time 5.0 day
Rattus norvegicus [40] = assay: Induction of bone regeneration in adult rat femur osteotomy model assessed as increase in bone volume/tissue volume fraction measured at 5 mg/kg, po for 14 days by microCT analysis relative to control; type: functional; details: time 14 day
Calvarial osteoblast [41] = assay: Induction of mineralization in rat Calvarial osteoblast cells measured at 1 pM measured for 14 days by Cetylpyridinium chloride method; type: functional, tissue-based; details: time 14.0 day
[42] = Half life in Sprague-Dawley rat at 5 mg/kg, po by LC-MS/MS analysis; type: ADME, organism-based; details: in vivo
[43] = In vivo induction of osteogenic activity in neonatal rat pups assessed as fold increase in OCN gene expression in calvarial tissue at 5 mg/kg, sc administered for 6 days; type: functional, Calvaria; details: time 6 day
Rattus norvegicus [44] = assay: Induction of new bone formation in rat pups assessed as mineralized bone formation in calvaria by measuring bone formation rate at 10 mg/kg, sc measured after 5 days by fluorescent microscopy by relative to control; type: functional, organism-based; details: time 5.0 day
Calvarial osteoblast [45] = assay: Induction of osteogenesis in rat calvarial osteoblast cells assessed as upregulation of BMP-2 protein expression at 1 pM measured after 48 hrs by immunoblotting analysis; type: functional, cell-based
Calvarial osteoblast [46] = assay: Induction of osteoblast differentiation in rat Calvaria osteoblast cells measured assessed as increase in alkaline phosphatase activity at 0.000001 to 1 uM incubated for 48 hrs using PNPP as substrate in presence of noggin; type: functional, cell-based; details: dose lower 1e-06 µM, dose upper 1.0 µM
[47] = as §1; type: functional

COc1cc(C(=O)O)cc(OC)c1OC
Activity (Calvarial osteoblast [1]): Active | Activity (Calvarial osteoblast [2]): Active

COc1cccc([C@H]2CC(=O)c3cc(NC(=O)c4cc(OC)c(OC)c(OC)c4)ccc3O2)c1
Activity (Calvarial osteoblast [3]): Active

COc1cc(C(=O)Nc2ccc3c(c2)C(=O)CC(c2ccc(C(C)(C)C)cc2)O3)cc(OC)c1OC (stereo not given)
fold change (FC) [4]: 2.8 | fold change (FC) [5]: 1.9 | Activity (Calvarial osteoblast [6]): Active | ECmax (Calvarial osteoblast [7]): 10 pM | Activity (Calvarial osteoblast [8]): Toxic | fold change (FC) [9]: 1.7 | Activity (Calvarial osteoblast [10]): Non-Toxic | Activity (Calvarial osteoblast [11]): inactive

COc1cccc(C2CC(=O)c3cc(NC(=O)c4cc(OC)c(OC)c(OC)c4)ccc3O2)c1 (racemic)
AUC [12]: 4820 ng·h/mL | Vdss [13]: 12.99 L/kg | remaining at 1 h [14]: 69% | CL/F [15]: 17.3 mL/min/kg | fold change (FC) [4]: 5.5 | fold change (FC) [5]: 3.7 | AUC [16]: 6530 ng·h/mL | Activity (Rattus norvegicus [17]): 130% | MRT [18]: 7.68 h | MRT [19]: 9.17 h | Activity (Rattus norvegicus [20]): Active | remaining at 1 h [21]: 89% | Activity (Rattus norvegicus [22]): Active | Cmax [23]: 858 ng/mL | fold change (FC) [24]: 2.5 | Activity (Calvarial osteoblast [1]): Active | ECmax (Calvarial osteoblast [7]): 1000 pM | Stability [25]: Stable | Activity (Rattus norvegicus [26]): Dose-Dependent Effect | CL/F [27]: 25.7 mL/min/kg | Vdss [28]: 8.42 L/kg | Activity (Calvarial osteoblast [8]): Toxic | half-life [29]: 5.85 h | fold change (FC) [30]: 2 | Activity (Rattus norvegicus [31]): Active | remaining at 1 h [32]: 88% | Cmax [33]: 736 ng/mL | Activity (Rattus norvegicus [34]): Active | Activity (Calvarial osteoblast [2]): Active | fold change (FC) [35]: 10 | Activity (Rattus norvegicus [36]): Active | fold change (FC) [9]: 4.4 | fold change (FC) [37]: 2.2 | Activity (Calvarial osteoblast [38]): Active | Activity (Rattus norvegicus [39]): inactive | Activity (Rattus norvegicus [40]): 44.3% | Activity (Calvarial osteoblast [10]): Non-Toxic | Activity (Calvarial osteoblast [41]): Active | half-life [42]: 5.6 h | fold change (FC) [43]: 18 | Activity (Rattus norvegicus [44]): Active | Activity (Calvarial osteoblast [45]): Active | Activity (Calvarial osteoblast [46]): inactive | fold change (FC) [47]: 2.9
